Data: PMC7177833, “2-Aminopyridine Analogs Inhibit Both Enzymes of the Glyoxylate Shunt in Pseudomonas aeruginosa” (International Journal of Molecular Sciences, 2020)
Like-named read-outs stand apart in the source and are kept apart here.

Tests used:
CYP3A4 = target: T1, CYP3A4 (Homo sapiens, UniProt P08684); experiment: CYP450 inhibition in HLM, atorvastatin, nifedipine and midazolam probes; format: in vitro ADME
T1 construct: pooled human liver microsomes; tissue BioIVT; host or cells: pooled human liver microsomes
Protocol: All incubations were carried out in triplicate.
The column temperature was maintained at 60 °C. […] The column temperature was maintained at 45 °C. […] The analytes were quantified in multiple reaction-monitoring mode.

CYP2D6 = target: T2, CYP2D6 (Homo sapiens, UniProt P10635); experiment: CYP450 inhibition in HLM, bufuralol probe; format: in vitro ADME; conditions: read-out: IC50 CYP450 2D6
T2 construct: pooled human liver microsomes; tissue BioIVT; host or cells: pooled human liver microsomes

CYP2C8 = target: T3, CYP2C8 (Homo sapiens, UniProt P10632); experiment: CYP450 inhibition in HLM, rosiglitazone probe; format: in vitro ADME; conditions: read-out: IC50 CYP450 2C8
T3 construct: pooled human liver microsomes; tissue BioIVT; host or cells: pooled human liver microsomes
T3 sequence (P10632 1-490): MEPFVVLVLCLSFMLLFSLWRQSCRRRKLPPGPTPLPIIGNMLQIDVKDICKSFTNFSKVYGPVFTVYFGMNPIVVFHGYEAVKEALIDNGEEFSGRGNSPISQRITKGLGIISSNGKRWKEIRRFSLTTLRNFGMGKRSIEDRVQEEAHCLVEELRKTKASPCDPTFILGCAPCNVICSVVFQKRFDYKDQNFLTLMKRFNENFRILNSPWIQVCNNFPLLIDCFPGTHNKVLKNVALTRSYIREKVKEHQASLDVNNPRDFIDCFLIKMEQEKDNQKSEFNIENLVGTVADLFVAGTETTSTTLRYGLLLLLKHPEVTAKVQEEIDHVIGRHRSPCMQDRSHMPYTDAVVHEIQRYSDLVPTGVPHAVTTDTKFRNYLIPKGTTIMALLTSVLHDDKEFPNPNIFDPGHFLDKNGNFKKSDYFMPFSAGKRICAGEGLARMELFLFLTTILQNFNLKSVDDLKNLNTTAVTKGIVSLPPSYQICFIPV
Protocol: (§1) The CYP450 inhibition was determined by measuring the reaction products of known CYP450 substrates (probes). Probe solutions were prepared by diluting stock solutions with buffer (100 mM Tris-HCl, pH 7.5, and 0.5 mM EDTA) to the final indicated concentrations (Figure 5), and adding 180 µL of pooled human liver microsomes (20 mg/mL) (BioIVT, West Sussex, UK). These probe solutions were dispensed (195 µL) into clear 96-well plates with low evaporation lids (Corning, Turin, Italy) and the plates were prewarmed to 37 °C in a thermomixer (Hamilton, Agrate Brianza, Italy). Next, 5 µL of the test compound or appropriate positive control (Table S4) were added to the wells and the plates were incubated for a further 5 min. Following this, the reactions were started by adding NADPH regenerating solution (50 µL, see previous Section 4.7) to each well. CYP450 mixtures containing phenacetin, rosiglitazone, mephenytoin, atorvastatin, and nifedipine probes were incubated for 10 min at 37 °C, whereas those with midazolam and diclofenac were incubated for 5 min at 37 °C. Aliquots (100 µL) from each reaction mixture were quenched in 200 µL acetonitrile, and the mixtures were sedimented at 3000 ×g for 10 min at 4 °C. The supernatants were diluted in water containing 5 ng/mL Rolipram as an internal standard for LC-MS/MS analysis. All incubations were carried out in triplicate.
(§2) Probe products were analyzed on an API4000 Qtrap mass spectrometer (Applied Biosystems/MDS SCIEX, Monza, Italy) coupled with an Acquity UPLC system (Waters, Milan, Italy) and a CTC-PAL auto-injector (CTC Analytics AG, Zwingen, Switzerland). […] The column temperature was maintained at 60 °C. The injected sample volume was 10 µL, and analytes were eluted at a flow rate of 800 µL/min in a gradient of eluent A (water with 0.1% formic acid) and eluent B (acetonitrile with 0.1% formic acid). […] The analytes were quantified in multiple reaction-monitoring mode. Data were processed, and the percentage control activity was calculated based on a comparison between the ratio of the sample peak area and the peak area.

CYP450 isozymes = experiment: CYP450 inhibition in HLM, whole isozyme panel; format: in vitro ADME, human; conditions: over the concentration range tested
Protocol: as §1, §2

[1] = Metabolic stability in rat liver microsomes; format: in vitro ADME; conditions: RLM; for Clh, int (predicted hepatic clearance): scaled; for Clh (predicted in vivo hepatic clearance): well-stirred model; for half-life at 0.5 µM / microsomal CLint at 0.5 µM: rat, pooled rat liver microsomes, pH 7.4
Protocol: The metabolic stability of the test compounds was measured following incubation with liver microsomes from humans (BioIVT, lot no. IHG; West Sussex, UK) and rats (BD Gentest, lot no. 60614; BD Biosciences, Milan, Italy). Verapamil and dextromethorphan were used as positive controls. An automated incubation procedure was performed using the RSP Freedom Evo liquid dispensing and incubation system (TECAN, Milan, Italy). Five microliters of 50 µM test compound or positive control were added to 445 µL of microsomal suspension in 96 deep-well plates. The microsomal preparation comprised 0.56 mg/mL of pooled and homogenized liver microsomes suspended in 50 mM potassium phosphate buffer, pH 7.4. After 5 min at 37 °C, the reactions were initiated by adding 50 µL of prewarmed NADPH regenerating buffer to each sample. The regenerating buffer comprised a 2% NaHCO3 solution containing 1.7 mg NADP, 7.8 mg glucose-6-phosphate, and 6 units of glucose-6-phosphate dehydrogenase per mL. The samples were incubated at 37 °C, and 50 µL aliquots were withdrawn after 0, 3, 10, 15, 30, and 45 min and quenched in 150 µL acetonitrile. […] The analytical column was a Synergi “Max-RP” reverse phase C12 with TMS endcapping (30 mm × 2 mm, 4 µm particle size) (Phenomenex, Inc., Bologna, Italy). The column temperature was maintained at 60 °C. […] Analytes were quantified in multiple reaction-monitoring mode. Peak areas were integrated using Integrator Software from Agilent (Agilent Technologies, Milan, Italy) and were divided by the peak areas of the internal standard. The percentage of parent compound remaining was calculated by normalizing the peak area ratio of the parent compound to that of the internal standard at time 0. The half-lives of compound metabolism were derived from the linear portion of the slope of ln percent parent compound vs time. Intrinsic clearance in liver microsomes was estimated from: (1) Clint=k×(V/M) (2) Clh, int=(Clint (×1st Scaling factor)×2^ndScaling factor) (3) Clh=(Q×Clh, int)/(Q+Clh, int).
Here, k is the rate of depletion of the parent compound ([…]), V is the volume of the reaction mixture in mL, and M is the concentration of microsomal protein (in mg/mL). The amounts of protein in the incubations were scaled relative to the average liver- and body-mass of each species to obtain intrinsic hepatic clearance (Clh, int, in […]) (Table S3). These scaling factors were used along with the average hepatic blood flow (Q, in […]) of each species to obtain in vivo correlations (Clh, in mL/min/kg) using the well-stirred model.

[2] = midazolam probe, read-out: IC50 CYP450 3A4- MDZ
[3] = atorvastatin probe, read-out: IC50 CYP450 3A4-ATR
[4] = nifedipine probe, read-out: IC50 CYP450 3A4-NIF

T1 sequence (P08684 whole entry): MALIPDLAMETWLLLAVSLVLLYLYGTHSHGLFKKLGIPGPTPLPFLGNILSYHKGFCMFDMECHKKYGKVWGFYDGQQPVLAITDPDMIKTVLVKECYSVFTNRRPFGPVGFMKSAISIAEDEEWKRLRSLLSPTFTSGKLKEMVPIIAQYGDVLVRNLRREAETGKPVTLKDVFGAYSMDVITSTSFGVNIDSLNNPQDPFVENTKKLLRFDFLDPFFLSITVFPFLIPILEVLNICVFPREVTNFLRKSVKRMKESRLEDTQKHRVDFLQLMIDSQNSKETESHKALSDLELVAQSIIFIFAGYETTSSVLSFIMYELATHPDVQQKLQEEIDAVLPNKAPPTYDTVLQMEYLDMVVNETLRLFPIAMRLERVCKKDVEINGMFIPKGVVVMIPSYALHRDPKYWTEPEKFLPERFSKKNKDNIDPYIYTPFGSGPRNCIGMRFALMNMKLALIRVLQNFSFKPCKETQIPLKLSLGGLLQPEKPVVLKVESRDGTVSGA
T2 sequence (P10635 whole entry): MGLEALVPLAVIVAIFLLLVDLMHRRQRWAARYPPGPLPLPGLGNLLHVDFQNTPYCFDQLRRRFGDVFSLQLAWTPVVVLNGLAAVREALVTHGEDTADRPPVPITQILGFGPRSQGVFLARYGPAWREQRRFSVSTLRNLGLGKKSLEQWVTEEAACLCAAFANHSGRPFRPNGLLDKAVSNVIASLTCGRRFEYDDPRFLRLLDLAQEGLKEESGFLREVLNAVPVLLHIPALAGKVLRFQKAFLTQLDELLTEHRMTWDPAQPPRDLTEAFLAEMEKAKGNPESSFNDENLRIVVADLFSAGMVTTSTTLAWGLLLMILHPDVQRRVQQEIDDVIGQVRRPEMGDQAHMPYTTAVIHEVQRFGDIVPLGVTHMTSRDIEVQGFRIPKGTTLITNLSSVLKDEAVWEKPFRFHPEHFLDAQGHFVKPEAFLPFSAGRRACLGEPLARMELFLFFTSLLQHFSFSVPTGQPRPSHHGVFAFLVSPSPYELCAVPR

Compound | IC50 (CYP3A4; [2]) [µM] | IC50 (CYP2D6) [µM] | IC50 (CYP2C8) [µM] | inhibitory drug–drug interactions (CYP450 inhibition) (CYP450 isozymes) | Clh, int (predicted hepatic clearance) [1] [mL/min/kg] | Clh (predicted in vivo hepatic clearance) [1] [mL/min/kg] | half-life at 0.5 µM [1] [min] | microsomal CLint at 0.5 µM [1] [µL/min/mg] | IC50 (CYP3A4; [3]) [µM] | IC50 (CYP3A4; [4]) [µM]
Nc1cc(Cl)ccn1 [Compound 2-AP, 2-amino-4-chloropyridine, reference compound] | > 100 | > 100 | > 100 | no major inhibitory drug–drug interactions | 14.63 | 12.48 | 220 | 6.33 | – | –
CC(C)(C)OC(=O)/N=C(\NC(=O)OC(C)(C)C)Nc1cc(Cl)ccn1 [SB002] | > 100 | > 100 | > 100 | no major inhibitory drug–drug interactions | 62.99 | 36.18 | 51 | 27.3 | > 100 | > 100
CC(C)(C)OC(=O)/N=C(\NC(=O)OC(C)(C)C)Nc1cc(C#N)ccn1 [SB023] | > 100 | > 100 | > 100 | no major inhibitory drug–drug interactions | 124.58 | 50.53 | 25.8 | 53.9 | > 100 | > 100
